# Test results: EP4692059A1, “CATIONIC LIPID HAVING DISULFIDE BOND” (Tohoku University, priority 2023, dated 2024)
# Legend:
# [1] = Particle size, PdI and zeta potential of mRNA-encapsulating LNPs by dynamic light scattering (Experimental Example 2); type: physicochemical
# Description: An acidic buffer solution (total amount: 1080 µL) of nucleic acid was prepared by weighing 7.2 µg of mRNA solution (0.6 mg/mL) in a 5 mL tube and adding acidic malate buffer (20 mM, pH 3.0).
# An acidic buffer solution of nucleic acid and an ethanol solution of lipid were each weighed in a syringe.
# The particle size, PdI (Polydispersity Index), and zeta potential of the mRNA-encapsulating LNP prepared by the method of the above-mentioned 1 were measured by a dynamic light scattering method (Zetasizer Nano; Malvern).
# liver [2] = assay: In vivo gene expression, luciferase luminescence in the liver after tail vein administration (Experimental Example 4); details: BALB/c mouse, mRNA 0.05 mg/kg; for amount of luminescence (photons/sec) in liver: tail vein, 4.5 hr after administration, LNP cationic lipid:DOPC:Chol:DMG-PEG2k = 52.5:7.5:40:1.5, prepared as in Experimental Example 2; for relative amount of luminescence: liver luminescence relative to cationic lipid of Comparative Example
# Description: LNP encapsulating mRNA that expresses luciferase (cationic lipid:DOPC:Chol:DMG-PEG2k = 52.5:7.5:40:1.5 (molar ratio)) was prepared by the method described in [Experimental Example 2], 1.
# (§1) The prepared each mRNA-encapsulating LNP dispersion was administered from the tail vein of BALB/c mouse (male, 5-week-old). The dose of mRNA was set to 0.05 mg per 1 kg body weight of the mouse, and the dose of the mRNA-encapsulating LNP dispersion was set to 10 µL per 1 g body weight of the mouse. After 4.5 hr from the administration of the mRNA-encapsulating LNP dispersion, a PBS solution of D-luciferin potassium was administered into the abdominal cavity of the mouse. The dose of D-luciferin potassium was set to 3 mg per mouse, and the dose of the PBS solution of D-luciferin potassium was set to 200 µL per mouse. After 15 min from the administration of the PBS solution of D-luciferin potassium, the mouse was euthanized, and the liver was isolated. The luminescence in the liver was quantified using an in vivo imaging system (IVIS) with an exposure of 10 sec. The amount of luminescence in the liver was quantified by image analysis using Live Imaging software attached to IVIS. The amount of luminescence (photons/sec) was calculated from the acquired image and used as an index of gene expression activity. The cationic lipids used, the luminescence intensity in the liver, and the relative luminescence intensity (= luminescence intensity in the liver when cationic lipid of Example was used/luminescence intensity in the liver when cationic lipid of Comparative Example was used) are shown in Table 7-1 to Table 7-3. "E+0a" (a: integer) indicated in Table 7-1 to Table 7-3 means "10^a". For example, "3.94E+09" means "3.94×10^9". […]
# liver [3] = assay: In vivo gene expression, luciferase luminescence in the liver after tail vein administration (Experimental Example 7); details: BALB/c mouse, mRNA 0.05 mg/kg
# Description: LNP encapsulating mRNA that expresses luciferase (cationic lipid:DOPC:Chol:DMG-PEG2k = 52.5:7.5:40:1.5 (molar ratio)) was prepared by the method described in [Experimental Example 6], 1.
# as §1, with “9.” for “7-1 to Table 7-3. "E+0a" (a: integer) indicated in Table 7-1 to Table 7-3 means "10^a".”
# [4] = Particle size, PdI and zeta potential of mRNA-encapsulating LNPs by dynamic light scattering (Experimental Example 6); type: physicochemical; details: mRNA-encapsulating LNP; for zeta potential (mV): cationic lipid:DOPC:Chol=49:7.5:42.5:1, dispersion in TBS (Tables 8-1, 8-2); for PdI / particle size (nm): cationic lipid:DOPC:Chol=49:7.5:42.5:1, dispersion in TBS, dynamic light scattering (Tables 8-1, 8-2)
# Description: An acidic buffer solution (total amount: 1300 µL) of nucleic acid was prepared by weighing 6.5 µg of mRNA solution (0.6 mg/mL) in a 5 mL tube and adding acidic citrate buffer (20 mM, pH 5.0).
# An acidic buffer solution of nucleic acid and an ethanol solution of lipid were each weighed in a syringe. […] The obtained concentrate was diluted with TBS to a lipid concentration of 2 mM to give a dispersion containing LNP.
# The particle size, PdI (Polydispersity Index), and zeta potential of the mRNA-encapsulating LNP prepared by the method of the above-mentioned 1 were measured by a dynamic light scattering method (Zetasizer Nano; Malvern). […]
# HeLa cells = assay: In vitro gene expression in HeLa cells (luciferase mRNA-encapsulating LNP, cumulative luminescence in 24 hr); details: for cumulative luciferase luminescence intensity (RLU) in 24 hr: LNP cationic lipid:DOPC:Chol:DMG-PEG2k = 50:10:40:1, mRNA 0.2 µg per dish, E+0a means 10^a; for relative luminescence intensity: cumulative intensity in 24 hr relative to cationic lipid of Comparative Example
# Description: LNP encapsulating mRNA that expresses luciferase (cationic lipid:DOPC:Chol:DMG-PEG2k = 50:10:40:1 (molar ratio)) was prepared by the method described in [Experimental Example 2], 1.
# HeLa cells, which are human cervical cancer cells, were seeded in a 3.5 cm dish at 5.0×10^4 cells/2 mL/Dish 24 hours before transfection. After 24 hr, the medium was changed to a culture medium (D-MEM) containing 0.1 mM D-luciferin. The prepared mRNA-encapsulating LNP was diluted with PBS to an mRNA concentration of about 1 µg/mL. The diluted mRNA-encapsulating LNP solution (about 200 µL, mRNA: 0.2 µg) was added to a 3.5 cm dish, and set in an incubator luminometer KronosDio. The luminescence intensity of luciferase was measured for 2 min every one hour. The cumulative luciferase luminescence intensity in 24 hr was calculated from the obtained time change of expression. […] In Comparative Example, the cationic lipid described in Table 2 was used.
# [5] = mRNA-encapsulating LNP, cationic lipid:DOPC:Chol = 50:10:40 (molar ratio) + DMG-PEG2k about 1 mol, Polydispersity Index, dynamic light scattering
# [6] = mRNA-encapsulating LNP, cationic lipid:DOPC:Chol = 50:10:40 (molar ratio) + DMG-PEG2k about 1 mol, Zetasizer Nano
# [7] = mRNA-encapsulating LNP, cationic lipid:DOPC:Chol = 50:10:40 (molar ratio) + DMG-PEG2k about 1 mol, dynamic light scattering
# [8] = mRNA-encapsulating LNP containing the cationic lipid, dispersion in PBS (Table 5-3)
# [9] = mRNA-encapsulating LNP containing the cationic lipid, dispersion in PBS, dynamic light scattering (Table 5-3)
Compound,"PdI [1, 5]","zeta potential (mV) [1, 6]","particle size (nm) [1, 7]","zeta potential (mV) [1, 8]","PdI [1, 9]","particle size (nm) [1, 9]",zeta potential (mV) [4],PdI [4],particle size (nm) [4],amount of luminescence (photons/sec) in liver (liver [2]),relative amount of luminescence (liver [2]),"amount of luminescence (photons/sec) in liver (liver [3]; tail vein, 4.5 hr after administration, LNP cationic lipid:DOPC:Chol:DMG-PEG2k = 52.5:7.5:40:1.5, prepared as in Experimental Example 6)",relative amount of luminescence (liver [3]; liver luminescence relative to cationic lipid of Comparative Example),cumulative luciferase luminescence intensity (RLU) in 24 hr (HeLa cells),relative luminescence intensity (HeLa cells)
CCCCCCCC/C=C\CCCCCCCC(=O)Oc1ccc(CC(=O)OCCC2CCN(CCSSCCN3CCC(CCOC(=O)Cc4ccc(OC(=O)CCCCCCC/C=C\CC(CCCCCC)OC(=O)C(CC)CCCC)cc4)CC3)CC2)cc1 (stereo not shown) [compound 166],–,–,–,-2.5 mV,0.047,89.3 nm,-2.99 mV,0.09,130.5 nm,–,–,8.49E+09 photons/sec,4.15,–,–
CCCCCCCC/C=C\CCCCCCCC(=O)Oc1ccc(CC(=O)OCCC2CCN(CCSSCCN3CCC(CCOC(=O)Cc4ccc(OC(=O)CCCCCCCCCCC(CCCCCC)OC(=O)CCCCCCC)cc4)CC3)CC2)cc1 (stereo not shown) [compound 145],–,–,–,-2.39 mV,0.034,83.1 nm,-3.79 mV,0.082,122.1 nm,6.65E+09 photons/sec,4.37,–,–,–,–
CCCCCC[C@@H](C/C=C\CCCCCCCC(=O)Oc1ccc(CC(=O)OCCC2CCN(CCSSCCN3CCC(CCOC(=O)Cc4ccc(OC(=O)CCCC(=O)OC[C@H](COC(C)=O)OC(C)=O)cc4)CC3)CC2)cc1)OC(=O)CCCCC [compound 17],0.061,-5.19 mV,127.90 nm,–,–,–,–,–,–,3.73E+09 photons/sec,2.45,–,–,5.18E+07 RLU,2.81
CCCCCCCC/C=C\CCCCCCCC(=O)Oc1ccc(CC(=O)OCCC2CCN(CCSSCCN3CCC(CCOC(=O)Cc4ccc(OC(=O)CCCCCCC/C=C\C[C@H](CCCCCC)OC(C)=O)cc4)CC3)CC2)cc1 [compound 1],0.070,-3.79 mV,96.63 nm,–,–,–,–,–,–,3.94E+09 photons/sec,2.59,–,–,2.61E+07 RLU,1.42
CCCCCCC#CCCOC(=O)CCCC(=O)Oc1ccc(CC(=O)OCCC2CCN(CCSSCCN3CCC(CCOC(=O)Cc4ccc(OC(=O)CCCC(=O)Oc5c(C)c(C)c6c(c5C)CCC(C)(CCCC(C)CCCC(C)CCCC(C)C)O6)cc4)CC3)CC2)cc1 (stereo not shown) [compound 150],0.071,-2.14 mV,94.66 nm,–,–,–,-8.1 mV,0.11,130.2 nm,–,–,–,–,–,–
CCCCCCCC/C=C\CCCCCCCC(=O)Oc1ccc(CC(=O)OCCC2CCN(CCSSCCN3CCC(CCOC(=O)Cc4ccc(OC(=O)CCCC(=O)OC[C@H](COC(=O)CCCCCCC)OC(=O)CCCCCCC)cc4)CC3)CC2)cc1 [compound 5],0.112,-4.68 mV,106.10 nm,–,–,–,–,–,–,3.76E+09 photons/sec,2.48,–,–,4.16E+07 RLU,2.25
CCCCCCCC/C=C\CCCCCCCC(=O)Oc1ccc(CC(=O)OCCC2CCN(CCSSCCN3CCC(CCOC(=O)Cc4ccc(OC(=O)CCCC(=O)OC[C@H](COC(=O)CCCCC)OC(=O)CCCCC)cc4)CC3)CC2)cc1 [compound 13],0.073,-3.63 mV,94.42 nm,–,–,–,–,–,–,–,–,–,–,1.24E+08 RLU,6.72
CCCCCCC#CCCOC(=O)CCCC(=O)Oc1ccc(CC(=O)OCCC2CCN(CCSSCCN3CCC(CCOC(=O)Cc4ccc(OC(=O)CCCCCCCC(=O)OC(CCCCCCCC)CCCCCCCC)cc4)CC3)CC2)cc1 [compound 148],0.063,-4.31 mV,92.96 nm,–,–,–,-7.4 mV,0.15,133.6 nm,–,–,–,–,–,–

# The next lines start with results.
"PdI [1, 5]","zeta potential (mV) [1, 6]","particle size (nm) [1, 7]","zeta potential (mV) [1, 8]","PdI [1, 9]","particle size (nm) [1, 9]",zeta potential (mV) [4],PdI [4],particle size (nm) [4],Compound,amount of luminescence (photons/sec) in liver (liver [2]),relative amount of luminescence (liver [2]),"amount of luminescence (photons/sec) in liver (liver [3]; tail vein, 4.5 hr after administration, LNP cationic lipid:DOPC:Chol:DMG-PEG2k = 52.5:7.5:40:1.5, prepared as in Experimental Example 6)",relative amount of luminescence (liver [3]; liver luminescence relative to cationic lipid of Comparative Example),cumulative luciferase luminescence intensity (RLU) in 24 hr (HeLa cells),relative luminescence intensity (HeLa cells)
0.067,-2.30 mV,123.30 nm,–,–,–,–,–,–,CCCCCC/C=C\COC(=O)CCCC(=O)Oc1ccc(CC(=O)OCCC2CCN(CCSSCCN3CCC(CCOC(=O)Cc4ccc(OC(=O)CCCC(=O)OC/C=C\CCCCCC)cc4)CC3)CC2)cc1 [compound 41],1.73E+09 photons/sec,1.14,–,–,–,–
0.059,-6.03 mV,97.44 nm,–,–,–,-6.2 mV,0.15,123.1 nm,CCCCCCC#CCCOC(=O)CCCC(=O)Oc1ccc(CC(=O)OCCC2CCN(CCSSCCN3CCC(CCOC(=O)Cc4ccc(OC(=O)CCCCCCC/C=C\CCCCCCCC)cc4)CC3)CC2)cc1 [compound 149],–,–,–,–,–,–
–,–,–,-5.07 mV,0.111,96.63 nm,–,–,–,CCCCCCCC/C=C\CCCCCCCC(=O)Oc1ccc(CC(=O)OCCC2CCN(CCSSCCN3CCC(CCOC(=O)Cc4ccc(OC(=O)CCCC(=O)N(CCCCCC)CCCCCC)cc4)CC3)CC2)cc1 [compound 124],5.12E+09 photons/sec,3.37,–,–,–,–
0.072,-3.98 mV,90.46 nm,–,–,–,-5.9 mV,0.17,128.2 nm,CCCCCC/C=C\COC(=O)CCCC(=O)Oc1ccc(CC(=O)OCCC2CCN(CCSSCCN3CCC(CCOC(=O)Cc4ccc(OC(=O)CCCCCCC/C=C\CCCCCCCC)cc4)CC3)CC2)cc1 [compound 43],–,–,–,–,–,–
